Assay results: patent publication US20240307396A1, “COMPOSITIONS AND METHODS FOR TREATING CELIAC DISEASE” (THE REGENTS OF THE UNIVERSITY OF CALIFORNIA, priority 2021, published 2024)
“Also recorded” adds a separate entry of the source.

Key:
[1] = tested on: Type II refractory celiac disease; assay: Trend of pertinent laboratory values in a Type II RCD patient across sequential treatments; type: in vivo, human; design: CRP: unit not given beside the values; settings: for CRP / DGP IgA / TTG IgA: same patient, Budesonide 3 m, Infliximab 1 y, Cladribine 1.5 y, Tofacitinib 2 y
From the text: A person with a past medical history significant for Hashimoto's thyroiditis and positive celiac serology was initially seen for protein-losing enteropathy. Although they had previously been on a gluten-free diet (GFD) for 1 year after first being diagnosed with CD, they re-introduced gluten 3 years before pregnancy without symptoms. They stayed on gluten until one-month postpartum when they developed epigastric pain, nausea, diarrhea with 2-3 loose to watery stools daily, along with significant bilateral lower extremity edema.
At the time of initial hospital admission, they were five months postpartum with the above symptomatology. […] They were discharged to outpatient setting on a GFD and referred to a CD clinic for management.
(§1) During the initial outpatient visit in the CD clinic they were hypotensive with anasarca, diagnosed with celiac crisis, and urgently sent for readmission. They were treated with 72 hours of intravenous solumedrol 20 mg every 12 hours and then transitioned to open-capsule protocol budesonide 3 mg three times a day.
(§2) They were therefore switched to experimental infliximab after a total of 5 months on budesonide.
(§3) The patient was now about 18 months out from diagnosis of Type II RCD, which is associated with about 50% risk of lymphoma in 5 years, so it was imperative to find an effective regimen. […] Discussion of associated adverse events, including thromboembolic ones, was conducted, and pre-treatment labs including lipid profile were done. […] This was the first-time the patient achieved such results in the 2 years since presenting with celiac crisis. […] Their tofacitinib dose will be reduced to 5 mg twice daily to reduce associated adverse events.

[2] = tested on: Type II refractory celiac disease; assay: Endoscopic and clinical response of the Type II RCD patient; type: in vivo, human; settings: for Endoscopic finding (ulcerative jejunitis / duodenopathy): budesonide 3 months, infliximab 9 months, tofacitinib 10 mg twice daily, four months
Method: as §1, §2, §3
However, malabsorption, malignancy, morbidity and mortality are known complications in Type II RCD (Cellier et al. (2000); Ilus et al. (2014); Weiss (2021) Diagnosis and Management of Gluten-Associated Disorders: A clinical casebook. Springer). Currently, the best clinical practice in managing RCD is to advocate for experimental medication treatment in adjunct to a strict gluten-free diet (GFD). Yet the same guidelines acknowledge the absence of treatments with proven efficacy in Type II RCD (Rubio-Tapia et al. (2013) Am. J. Gastroenterol., 108(5):656-677; Al-Toma et al. (2019) United European Gastroenterol. J.: 7(5):583-613). The European guidelines discuss the potential use of AMG714 or JAK inhibitor after corticosteroids, immunomodulators, and chemotherapy in the most refractory of CD cases. […] Additional studies are needed, but the therapy disclosed herein may be utilized in uncomplicated CD or non-responsive CD (NRCD) in combination with a GFD, or even as a substitute to one.

[3] = tested on: Type II refractory celiac disease; assay: Small bowel biopsy histology (modified Marsh classification) and immunophenotype in the Type II RCD patient; type: in vivo, human; settings: for Marsh lesions on biopsy: tofacitinib 10 mg twice daily, four months; for Pathology (Marsh lesion): same patient, Budesonide 3 m, Infliximab 1 y, Cladribine 1.5 y, Tofacitinib 2 y
From the text: CD can be characterized using the modified Marsh classification scheme. A subject having a Marsh 0 score would be characterized as either healthy or if previously diagnosed with CD, as “CD in remission”. A Marsh 1 score is non-specific, rarely seen in CD, unless already on a GFD during endoscopy, and may be observed in subjects having dermatitis herpetiformis (DH) or in family members of CD patients, but also with other conditions as infections and adverse response to medications. A Marsh 2 score is rare and is sometimes observed in DH and again in CD patients already on a GFD. Marsh 3 score is characteristic of the spectrum of changes observed in symptomatic CD patients.
as §1, §2, §3

IL-15 = IL-15 (Homo sapiens, UniProt P40933); settings: cited from earlier work
[4] = budesonide 3 months, infliximab 9 months

Sequence of IL-15 (P40933 49-162): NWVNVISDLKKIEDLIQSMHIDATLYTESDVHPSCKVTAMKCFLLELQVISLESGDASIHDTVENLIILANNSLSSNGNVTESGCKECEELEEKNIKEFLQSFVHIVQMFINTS

Compound	CRP [1]	DGP IgA [1]	TTG IgA [1]	Endoscopic finding (ulcerative jejunitis / duodenopathy) [2]	T-cell aberrancy / CD8 expression in intraepithelial T-lymphocytes [3, 4]	Marsh lesions on biopsy [3, 4]	Pathology (Marsh lesion) [3]	CD serologies ([1]; four months after start of tofacitinib 10 mg twice daily)	Symptoms ([2]; during tofacitinib therapy)	Duodenal bulb biopsy histology (H&E) ([3]; during tofacitinib therapy, FIG. 2D)	Results of AMG714 (IL-15)	Resolution of RCD ([2]; one dose of cladribine 10 mg IV)
infliximab	<0.3	53.9 (H)	33.1 (H)	resolution of their ulcerative jejunitis	unchanged T-cell aberrancy	Marsh 3A	Marsh 3A					
C[C@@H]1CCN(C(=O)CC#N)C[C@@H]1N(C)c1ncnc2[nH]ccc12 [Tofacitinib, tofacitinib]	<0.3	70 (H)	5	reversed severe therapy-refractory duodenopathy; also recorded: improvement in their duodenopathy		Marsh 1-2	Marsh 1-2	normalization of their CD serologies	ameliorated symptoms of CD; also recorded: feeling well with minimum symptoms	normal villous architecture with focal areas of crypt hyperplasia and an increase in intraepithelial lymphocytes		
AMG714: anti-IL-15 mAb											positive yet statistically insignificant results	
CCCC1O[C@@H]2C[C@H]3[C@@H]4CCC5=CC(=O)C=C[C@]5(C)[C@H]4[C@@H](O)C[C@]3(C)[C@]2(C(=O)CO)O1 (stereo partly shown) [Budesonide, budesonide]	<0.3	186.9	152.3									
Nc1nc(Cl)nc2c1ncn2[C@H]1C[C@H](O)[C@@H](CO)O1 [Cladribine, cladribine]	<0.3	57.7 (H)	44.3 (H)				Marsh 3A					without resolution of their RCD
